Measured values reported in US9732060B2, “Aminotriazine derivative and pharmaceutical composition comprising the same” (Shionogi & Co., Ltd., priority 2013, dated 2017).
Read-outs that look alike come from different tables or passages of the source.

Legend:
human P2X3 receptor = human P2X3 receptor (Homo sapiens (Human), UniProt P56373); assay: Evaluation of human P2X3 receptor inhibitory activity (FLIPR Ca fluorescence, ATP-evoked); assay type: cell-based; settings: C6BU-1 cells stably expressing human P2X3 receptor
Method: Stably expressing cell line (C6BU-1 cell transfected with human P2X3 receptor gene (GenBank accession number Y07683) was used. The cells were seeded in a 384-well PDL-coated microtiter plate at a concentration of 3000 cells/well and cultured in the medium (8.3% fetal bovine serum, 8.3% horse serum, and 1% antibiotic and antifungal in DMEM) for one day at 37° C. under 5% carbon dioxide atmosphere. The medium was replaced with 4 μM Fluo-3-AM solution (20 mM HEPES, 137 mM NaCl, 2.7 mM KCl, 0.9 mM MgCl2, 5.0 mM CaCl2, 5.6 mM D-glucose, 2.5 mM probenecid, 0.5% BSA, and 0.04% Pluronic P-127, pH 7.5) and incubated at 37° C. under 5% dioxide carbon atmosphere for one hour. The plate was washed with washing buffer (20 mM HEPES, 137 mM NaCl, 2.7 mM KCl, 0.9 mM MgCl2, 5.0 mM CaCl2, 5.6 mM D-glucose, 2.5 mM probenecid, pH 7.5), and each well was added with 20 μL of the washing buffer. The plate was placed in High-Throughput Screening System FLIPR 384 (Molecular Device Co.). Measurement of fluorescence intensity by […] was started, and 20 μL of DMSO solutions containing different concentrations of the test compound as prepared by dilution with dilution buffer (20 mM HEPES, 137 mM NaCl, 2.7 mM KCl, 0.9 mM MgCl2, 5.0 mM CaCl2, 5.6 mM D-glucose, 2.5 mM probenecid, 0.1% Pluronic F-127, pH 7.5) were dispensed to each well through the built-in automatic dispenser. Five minutes after, 150 nM ATP solution (25 μL) prepared by dilution with the dilution buffer was dispensed through the built-in automatic dispenser, and the measurement of fluorescence intensity was continued for 4 min. For each well, the specific maximum fluorescence intensity was calculated as the ratio of the maximum fluorescence intensity after addition of the ATP solution to the fluorescence intensity at the starting of the measurement. […] The specific maximum fluorescence intensify and IC50 were calculated using Spotfire (Science & Technology Systems. Inc.)

[1] = Pharmacokinetic test (BA, CLtot); assay type: in vivo; settings: rat, plasma, SD rats
Method: • (1) Animals: SD rats were used • (2) Breeding conditions: SD rats were allowed to freely take solid food and sterilized tap water. • (3) Dose and grouping: orally or intravenously administered at a predetermined dose; grouping was as follows (Dose depends on the compound)
Oral administration: 1 mg/kg (n=2)
The total body clearance (CLtot) was calculated by dividing the dose by the AUC of the intravenous administration group.

Rat P2X3 receptor = Rat P2X3 receptor (Rattus norvegicus (Rat), UniProt P49654); assay: Evaluation of rat P2X3 receptor inhibitory activity in the presence of rat serum albumin (RSA); assay type: cell-based; settings: read-out: ratP2X3 + RSA IC50
Method: Rat P2X3 receptor gene (GenBank accession number NM_031075) was expressed in C6BU-1 cell. The C6BU-1 cells were seeded in a 96-well micro titer plate at a concentration of 2500 cells/well and cultured in the medium (7.0% fetal bovine serum, 7.0% horse serum, and 1% antibiotic and antifungal in DMEM) for one day at 37° C. under 5% carbon dioxide atmosphere. The plasmid was transfected into the cells using transfection reagent FuGENE6 (Promega). The transfected cells were cultured in the medium for one day at 37° C. under 5% carbon dioxide atmosphere. The medium was replaced with 4 μM Fluo-4-AM solution (pH 7.5) containing 20 mM HEPES, 137 mM NaCl, 5.27 mM KCl, 0.9 mM MgCl2, 1.26 mM CaCl2, 5.6 mM D-glucose, 2.5 mM probenecid, 10% RSA, and 0.08% Pluronic F-127, and incubated at 37° C. under 5% dioxide carbon atmosphere for one hour. The plate was washed with washing buffer (20 mM HEPES, 137 mM NaCl, 5.27 mM KCl, 0.9 mM MgCl2, 1.26 mM CaCl2, 5.6 mM D-glucose, 2.5 mM probenecid, pH 7.5), and each well was added with 40 μL of this buffer. The plate was placed in High-Throughput Screening System FDSS 3000 (Hamamatsu Photonics K.K.). Measurement of fluorescence intensity by FDSS 3000 was started, and 40 μL of DMSO solutions containing 1% RSA (final concentrations) and different concentrations of the test compound as prepared by dilution with dilution buffer (20 mM HEPES, 137 mM NaCl, 5.27 mM KCl, 0.9 mM MgCl2, 1.26 mM CaCl2, 5.6 mM D-glucose, 2.5 mM probenecid, 0.1% Pluronic F-127, pH 7.5) were dispensed to each well through the built-in automatic dispenser. Five minutes after, 50 nM ATP solution (50 μL) prepared by dilution with the dilution buffer was dispensed through the built-in automatic dispenser, and the measurement of fluorescence intensity was continued for 4 min. For each well, the specific maximum fluorescence intensity was calculated as the ratio of the maximum fluorescence intensity after addition of the ATP solution to the fluorescence intensity at the starting of the measurement. […] FDSS software (Hamamatsu Photonics K.K.) was used for calculation of the specific maximum fluorescence intensity. IC50 was calculated using Microsoft Excel (Microsoft Corporation) and XLfit (idbs Ltd.).

[2] = Protein binding test (equilibrium dialysis, unbound fraction in serum); assay type: in vitro ADME; settings: 37° C.
Method: The unbound fraction of the present compound in serum was measured using serum of various species.
The reactive conditions are as follows: Evaluation method, Equilibrium dialysis; Reaction time, 24 hours; Reaction temperature, 37° C.; Concentration of the present compound, 2 μg/mL
The test solution was added to each serum and the mixture was agitated to prepare the serum samples at the concentration mentioned above. Each serum sample was added into one side of the cell and phosphate buffered saline (PBS) was added into the other side to perform equilibrium dialysis at 37° C. for 24 hours. Then, the concentration of the compounds in the samples that were obtained from both sides was measured by LC/MS/MS.
The ratio of PBS concentration to serum concentration is expressed as unbound fraction (fu),

[3] = Solubility test (1% DMSO, artificial intestinal juice pH 6.8); assay type: physicochemical; settings: artificial intestinal juice pH 6.8 with 1% DMSO, 25 °C, fassgf or other biorelevant, kinetic from dmso stock, artificial intestinal juice pH 6.8, 25 degrees Celsius, read-out: Solubulity

Chain of Rat P2X3 receptor (P49654 whole entry): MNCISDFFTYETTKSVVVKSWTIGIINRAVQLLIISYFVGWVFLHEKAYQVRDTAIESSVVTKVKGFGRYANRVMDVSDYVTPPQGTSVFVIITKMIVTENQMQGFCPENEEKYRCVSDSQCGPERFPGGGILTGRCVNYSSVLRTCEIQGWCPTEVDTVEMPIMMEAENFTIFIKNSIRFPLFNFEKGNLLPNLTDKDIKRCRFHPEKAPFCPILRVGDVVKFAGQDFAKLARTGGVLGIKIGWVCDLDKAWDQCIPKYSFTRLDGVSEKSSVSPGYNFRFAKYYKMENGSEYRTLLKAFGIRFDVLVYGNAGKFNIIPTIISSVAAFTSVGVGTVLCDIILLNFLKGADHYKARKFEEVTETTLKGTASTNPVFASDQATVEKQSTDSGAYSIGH
Chain of human P2X3 receptor (P56373 whole entry): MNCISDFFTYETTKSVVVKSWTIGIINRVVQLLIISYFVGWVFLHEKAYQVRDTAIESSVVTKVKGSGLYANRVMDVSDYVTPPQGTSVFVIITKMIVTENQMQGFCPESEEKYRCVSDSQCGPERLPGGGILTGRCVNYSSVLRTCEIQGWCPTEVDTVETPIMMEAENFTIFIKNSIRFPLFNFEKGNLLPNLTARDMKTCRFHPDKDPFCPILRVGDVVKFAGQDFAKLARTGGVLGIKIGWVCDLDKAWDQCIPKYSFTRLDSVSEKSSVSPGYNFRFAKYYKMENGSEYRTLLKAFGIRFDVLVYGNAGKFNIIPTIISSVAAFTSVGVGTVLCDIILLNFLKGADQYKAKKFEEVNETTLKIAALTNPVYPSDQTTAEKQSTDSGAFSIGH

SMILES: Cc1ccc(Cn2c(=O)n(C[C@H](C)C(=O)O)c(=O)[nH]/c2=N\c2ccc(Oc3ccc(F)cn3)cc2)cc1 [Compound I-040]
- IC50 (human P2X3 receptor): 6 nM
- clearance ([1]; intravenous administration 0.5 mg/kg): 28.6 mL/min/kg
- AUC ([1]; intravenous administration 0.5 mg/kg, read-out: AUC (iv)): 291 ng·h/mL
- AUC ([1]; oral administration 1 mg/kg, read-out: AUC (po)): 410 ng·h/mL
- IC50 (Rat P2X3 receptor): 9 nM
- fraction unbound at 24 h, 2 μg/mL [2]: 0.035
- solubility at 18 h [3]: > 50 µM
